The text below walks through data of US9351484B2, “N-alkyl lactam ethers, and compositions and uses thereof” (priority 2010, dated 2016).

“Also recorded” adds a separate entry of the source. Read-outs that look alike come from different tables or passages of the source.

A short description of series [1]: Aqueous behavior of ether/water blends, pH 1 to 13, chilled. It counts as physicochemical. As to conditions: equal mass ratio with water, pH adjusted from 1 to 13, chilled to −15° C. The protocol:
The blends were pH adjusted from 1 to 13 and then chilled to −15° C.

Series [2] is described as follows: Freezing points of bis-N-ethyl pyrrolidone ether/water blends by differential scanning calorimetry. In kind it is physicochemical. The protocol:
The freezing points of bis-N-ethyl pyrrolidone ether/water blends were measured using differential scanning calorimetry. All measurements were conducted under nitrogen purge from 25° C. to −80° C. at a cooling rate of 5° C./min using a Q2000 calorimeter by TA Instruments.
Freezing depressions were measured for bis-N-ethyl pyrrolidone ether/water blends (Table 3).

A short description of series [3]: Freezing point depression of glycerol (or other polyol)-water blends with added ether. It counts as physicochemical. The protocol: Different binary blends of glycerol and water are prepared, and then bis-N-ethyl pyrrolidone ether is added in 1% increments from 0% to 50% of the ether. The freezing point depression of these compositions is measured using a suitable differential thermometer (e.g., a thermocouple).
As a specific subclass to Example 5, a eutectic blend of glycerol-water is prepared, having about 65% glycerol (by weight) and a freezing point depression of about −46° C. Bis-N-ethyl pyrrolidone ether is added in 1% increments from 0% to 50% added ether. The freezing point depression of these compositions is measured using a suitable differential thermometer (e.g., a thermocouple).
[…], replacing glycerol with ethylene glycol, propylene glycol, or pentaerythritol.

Series [4] can be described thus: Gas hydrate inhibitor and anti-agglomerant test. Particulars: 0.5% and 1.0% (w/w NaCl brine solution), 123 bar, 2.8° C. The protocol:
Bis-N-ethyl pyrrolidone ether was assessed as a gas hydrate inhibitor and as an anti-agglomerant. A three-part fluid blend was prepared having equal mass amounts of Troika crude oil (black oil), synthetic condensate, and a sodium chloride brine solution into which the ether was dissolved. Ether addition levels were studied two times at 0.5% (w/w NaCl brine solution), and one time at 1.0% (w/w NaCl brine solution). The abovementioned fluid blend blanketed with Green Canyon gas (Table 6) at a pressure of 123 bar and maintained at 2.8° C. for the tests.

The conditions of series [5]: equal volume ratio.
From the text: The blends were visually observed to determine miscibility of the ether with the various solvents.
For series [6] the following is noted: cited from earlier work.

Regarding `O=C1CCCN1CCOCCN1CCCC1=O` [bis-N-ethyl pyrrolidone ether], in series [1], the “phase behavior of blend with water” value was “single phase”. Also, the freezing point in series [2] (1% in water (by mass)) was −9.3 °C; in series [2] (5% in water (by mass)), −7.9 °C; in series [2] (10% in water (by mass)) it was −13.5 °C; in series [2] (20% in water (by mass)) it was −13.3 °C; in series [2] (30% in water (by mass)), −18.2 °C; in series [2] (40% in water (by mass)) it was −28.6 °C. The molecule also yielded a freezing point in series [2] (50% in water (by mass)) of −43.2 °C; a freezing point in series [2] (60% in water (by mass)) of under −80 °C; a freezing point in series [2] (66% in water (by mass)) of under −80 °C; a freezing point in series [2] (75% in water (by mass)) of under −80 °C; a freezing point in series [2] (100% bis-N-ethyl pyrrolidone ether) of under −80 °C; a freezing point (neat) of under −80 °C. For the same molecule, in series [3] (ether added 0% to 50% to eutectic glycerol-water blend (about 65% glycerol)), the freezing point depression result is “lower than −46 °C”. The “freezing point depression compared to glycerol-water binary blends” value in series [3] (ether added 0% to 50% to glycerol-water blends) was “further depress the freezing point depression”. The “freezing point depression compared to solutions without the ether” value in series [3] (glycerol replaced with ethylene glycol, propylene glycol, or pentaerythritol) was “lowers the freezing point depression”. Besides, the “formation of gas hydrates and agglomerants” value in series [4] is recorded as “considerably limited gas hydrate formation; also recorded: very small”. Further, the “pH in a 50% aqueous solution” value (50% aqueous solution) is reported as 9.5. The molecule also had a viscosity (Cannon Fenske viscometer, #300 tube) of 96.4 cP^†. The “color (APHA)” value (neat) is listed as over 500. Also, the refractive index result is, setting by setting: (neat) “around 1.51”; (neat, listed as bis-N-ethyl pyrrolidone) 1.5063. The specific gravity (neat) came out at 1.148. The thermal decomposition temperature (neat) was determined as 275 °C. Moreover, the physical state entry (neat, ambient conditions) is reported as “liquid (ambient conditions)”. The “surface tension (static)” value by setting is: (plate) 50.2; (ring) 51.1. Besides, the miscibility observation entry is listed as “miscible” in series [5] (2-propanol); “miscible” in series [5] (acetone); “immiscible” in series [5] (cyclohexane); “insoluble” in series [5] (cyclohexane, listed as bis-N-ethyl pyrrolidone); “miscible” in series [5] (ethyl acetate); “immiscible” in series [5] (hexane). Also, the miscibility observation entry in series [5] (hexane, listed as bis-N-ethyl pyrrolidone) is “insoluble”; in series [5] (methanol) it was “miscible”; in series [5] (methyl ethyl ketone), “miscible”; in series [5] (toluene) it was “miscible”; in series [5] (water), “miscible”.

As to `OCCO` [ethylene glycol], the freezing point is −3 °C in series [6] (11% in water (by mass)); −8 °C in series [6] (22% in water (by mass)); −16 °C in series [6] (32% in water (by mass)); −25 °C in series [6] (43% in water (by mass)); −37 °C in series [6] (53% in water (by mass)); −55 °C in series [6] (63% in water (by mass)). Besides, in series [6] (ethylene glycol and water in equal mass ratio), the freezing point is −32 °C.
